The record followed here is article PMC6687188, “Novel lactate dehydrogenase inhibitors with in vivo efficacy against Cryptosporidium parvum” (PLoS Pathogens, 2019).

Like-named read-outs stand apart in the source and are kept apart here. Where only a bound is given, the exact number is not on record here.

One series deals with HCT-8 cells. The experiment in a line: Compound cytotoxicity assay (WST-1 cell proliferation reagent). Conditions: read-out: CYTOTOXICITY IC50; HCT-8 cells, 24 h. The method, then: A colorimetric assay using the cell proliferation reagent WST-1 (Roche, USA) for the quantification of cell viability was performed. […] When the cells were confluent, the old medium was replaced with fresh medium with or without varying concentrations of chemical compound. After 24 h of culture, 10 μl of the cell proliferation reagent WST-1, (for quantification of cell viability) was added to each well, mixed and the plates incubated for 1 h at 37 C with 5% CO2 in the dark. […] Three independent assays were performed and the dose–response curves of the means of triplicate assays were generated using GraphPad PRISM software to derive the half maximal inhibitory concentration (IC50) of compounds in HCT-8 cells.

Series [1] can be described thus: Tolerability in mice, daily oral gavage for 7 days. The class given is in vivo. Conditions: daily oral gavage over 7 days, no toxicity signs. The method, then:
(§1) Gamma interferon knockout mice (B6.129S7-Ifng), 8 weeks of age, were purchased from Charles River, USA. The care and use of the mice was done following the guidelines of protocol number 17024 approved by the University of Illinois at Urbana-Champaign, USA. The animals were allowed to acclimatize for 1 week before experiments commenced. Stock solutions of recombinant CpLDH inhibitors reconstituted in DMSO were diluted in sterile distilled water to reduce the final amount of DMSO in the solution to less than 1% (v/v) before administering them to mice. Prior to testing the anti-Cryptosporidium effect of the inhibitors in mice, the tolerability of each inhibitor was tested by oral gavage using varying dosages (100–2000 mg/kg body weight) of each inhibitor in groups of mice (three mice for each dose) daily for 7 days. Mice were observed daily for signs of toxicity including changes from normal physical activity, respiration, body temperature, feeding, posture, fur condition or occurrence of death. […] An equivalent volume of PBS containing a cocktail of penicillin (100 units/ml), streptomycin (100 μg/ml), chloramphenicol (34 μg/ml) and amphotericin (0.25 μg/ml) was added to the fecal samples and stored at 4°C until use for quantification of C. parvum genomic DNA load. […]

In series [2] the test system is Cryptosporidium parvum. Briefly: Histopathology of distal small intestine of infected mice (denuded villi). The class given is in vivo. Conditions: 9 days post-infection. On the procedure: Gamma interferon knockout mice (B6.129S7-Ifng), 8 weeks of age, were purchased from Charles River, USA. The care and use of the mice was done following the guidelines of protocol number 17024 approved by the University of Illinois at Urbana-Champaign, USA. The animals were allowed to acclimatize for 1 week before experiments commenced. Stock solutions of recombinant CpLDH inhibitors reconstituted in DMSO were diluted in sterile distilled water to reduce the final amount of DMSO in the solution to less than 1% (v/v) before administering them to mice. Prior to testing the anti-Cryptosporidium effect of the inhibitors in mice, the tolerability of each inhibitor was tested by oral gavage using varying dosages (100–2000 mg/kg body weight) of each inhibitor in groups of mice (three mice for each dose) daily for 7 days. Mice were observed daily for signs of toxicity including changes from normal physical activity, respiration, body temperature, feeding, posture, fur condition or occurrence of death. […] Mice were allocated to groups as follows: “Infected plus inhibitor treatment”; “Infected minus inhibitor treatment”; “Uninfected minus inhibitor treatment” and “Infected plus paromomycin treatment”. Each group contained at least three mice. Each mouse in the infection groups received 5,000 C. parvum oocysts (resuspended in 50 μl of PBS) by oral gavage. Mice were housed individually in cages lined with sterile gauze as bedding. One day post-infection (PI), daily oral gavage administration of recombinant CpLDH inhibitor or paromomycin commenced and continued for a total of 7 days. Untreated mice received an equivalent volume of sterile distilled water (containing DMSO equivalent to the amount administered in the inhibitor-treated group) by oral gavage. […] An equivalent volume of PBS containing a cocktail of penicillin (100 units/ml), streptomycin (100 μg/ml), chloramphenicol (34 μg/ml) and amphotericin (0.25 μg/ml) was added to the fecal samples and stored at 4°C until use for quantification of C. parvum genomic DNA load. […]

Series [3] concerns the target recombinant CpLDH protein (Cryptosporidium parvum, UniProt Q9GT92, F198L/K295E/R251K).
Series [4] has as its system Cryptosporidium parvum. Briefly: In vivo anti-Cryptosporidium efficacy: real-time PCR of C. parvum DNA in feces of infected Gamma interferon knockout mice. Conditions: 250, 500 and 1000 mg/kg; day 3 until day 8. The method, then: as §1, with “mice.” for “mice. Prior to testing the anti-Cryptosporidium effect of the inhibitors in mice, the tolerability of each inhibitor was tested by oral gavage using varying dosages (100–2000 mg/kg body weight) of each inhibitor in groups of mice (three mice for each dose) daily for 7 days. Mice were observed daily for signs of toxicity including changes from normal physical activity, respiration, body temperature, feeding, posture, fur condition or occurrence of death.”
Genomic DNA was extracted from individual fecal samples collected from mice at different days as described above. […] Quantification of the amount of C. parvum 18s rRNA gene (GenBank accession number AF164102) was performed essentially as described previously. […] The PCR product was fractionated on agarose gel, extracted using the QIAquick Gel extraction kit (Qiagen, USA), and the concentration measured by Nanodrop Spectrophotometer (Fisher, USA). Ten-fold serial dilutions of the extracted DNA fragment were made and used as quantification standards for real-time PCR. […]

Series [5] concerns Cryptosporidium parvum. Briefly: In vitro anti-Cryptosporidium assay in HCT-8 cells (immunofluorescence). Type of series: cell-based. Conditions: for IC50: HCT-8 cells. The method, then:
HCT-8 cells were cultured in supplemented RPMI-1640 medium in 96-well plates. When the cells were confluent, old medium was replaced with fresh medium. To one set of wells, varying concentrations of recombinant CpLDH inhibitors (reconstituted in DMSO and diluted in RPMI medium) were added, while another set was left without inhibitors. Paromomycin was used as a positive control drug reconstituted in distilled sterile water. Then, 4 x 10^4 freshly excysted sporozoites were added to each well and incubated at 37°C with 5% CO2. After 2 h incubation, varying concentrations of CpLDH inhibitors were added to the set of infected cells that were not treated initially. Control infected cells without inhibitors, but with added DMSO volumes equivalent to those used in the wells with inhibitors, were included. The cells were maintained in culture for a total of either 48 h or 72 h and processed for immunofluorescence assay as previously described. Briefly, medium was decanted and the cells fixed with methanol-acetic acid (9:1) for 2 minute at room temperature. The cells were rehydrated and permeabilized by two successive washes with buffer (0.1% Triton X-100, 0.35 M NaCl, 0.13 M Tris-base, pH 7.6) and blocked with 5% normal goat serum, followed by staining with antibody to C. parvum (SporoGlo; Waterborn, Inc.) overnight at 4°C. The stained cells were washed twice with PBS, followed by water, and then imaged with an inverted fluorescence microscope. Fluorescence quantification was done using ImageJ version 1.37v software (NIH).

With `O=C1c2ccccc2C(=O)c2c(O)c(O)cc(O)c21` [NSC10447], the IC50 in the series on HCT-8 cells turned out to be 290 µM; in series [3] (read-out: IC50, inhibition of recombinant CpLDH activity), 46.3 µM; in the series with Cryptosporidium parvum [5] (compound added at the time of infection, read-out: IC50, inhibition of C. parvum growth at 72 h p.i.) it was 83.6 µM; with Cryptosporidium parvum [5] (read-out: IC50, inhibition of C. parvum growth at 48 h p.i. (2 h), compound added 2 h post-infection), 79.5 µM; with Cryptosporidium parvum [5] (read-out: IC50, inhibition of C. parvum growth at 48 h p.i., compound added at the time of infection), 72.7 µM; in the series on Cryptosporidium parvum [5] (read-out: IC50, inhibition of C. parvum growth at 72 h p.i. (2 h), compound added 2 h post-infection) it was 95.2 µM. The “highest tolerable dose in mice” value in series [1] is recorded as 1000 mg/kg. Further, the “reduction of percentage of denuded intestinal villi compared to infected untreated mice” value with Cryptosporidium parvum [2] is at least 7 fold. Besides, the “intestinal histopathology (in words)” value in the series on Cryptosporidium parvum [2] (distal small intestine) is “prevented villous atrophy and maintained the integrity of the intestinal mucosa”. The “MEAN CpLDH INHIBITION (%)” value in series [3] is listed as 39.07%. Further, the “lower C. parvum DNA load in feces compared to infected untreated” value in the series with Cryptosporidium parvum [4] was “at least 50%”. Moreover, in the series with Cryptosporidium parvum [5] (48 h post-infection, concentration at least 50% lower than cytotoxicity IC50), the “C. parvum proliferation in vitro, initial screen (in words)” value was “significantly (P < 0.05) inhibit C. parvum proliferation”.
